Measurements reported in patent publication US6987093B2 (priority 2001, dated 2006).
≈ marks a conversion by molar mass, not a printed value. Where “and” joins values, the source holds several entries; their conditions need not be identical. Equal entries are not always repeated. Where two headings read alike, the source gives them in different places.

Columns and labels:
H. influenzae [1] = test: Single dose azithromycin pediatric AOM trial, subjects with H. influenzae at baseline; format: in vivo, human
Description: Children six months to twelve years were enrolled if they had symptoms and signs of acute otitis media (“AOM”) for less than four weeks and middle ear effusion by acoustic reflectometry. Symptoms necessary for enrollment included ear pain or fullness, discharge from the external auditory canal, decreased hearing or fever. On physical examination they must have had one or more of the following: bulging or marked erythema of the tympanic membrane, loss of the normal light reflex or tympanic membrane landmarks, or impaired tympanic mobility on biphasic pneumatic otoscopy. The effusion was to be documented by acoustic reflectometry with an abnormal reading of 3 or higher.
Samples of middle ear fluid were obtained by tympanocentesis or, in the case of a perforated tympanic membrane, by swab. Middle ear fluid samples were obtained for culture at baseline. […] Children who vomited within thirty minutes of dosing were redosed.
Samples of middle ear fluid were split for storage at a central laboratory and cultured locally.
A phone contact occurred on study day 5 to assess for adverse events followed by visits on days 10 and 24–28, at which time detailed clinical assessments were made and adverse events were recorded. Definitions included clinical cure (complete resolution of all signs and symptoms of AOM); improvement (partial resolution of signs and symptoms); or failure (no change or worsening of signs and symptoms, or requirement for additional antibiotic therapy for AOM). Any patient considered to have failed therapy was to have a repeat tympanocentesis.
The primary endpoint of the trial was the investigator designated cure rate at Day 24–28 for which a 95% confidence interval was computed using the normal approximation to the binomial distribution. Other endpoints analyzed included the clinical response rate by baseline pathogen at Day 24–28, the overall clinical response at Day 10, the percentage of subjects with individual signs and symptoms, as well as findings from pneumatic otoscopy and acoustic reflectometry. […]

S. pneumoniae isolates = test: Susceptibility (MIC) testing of trial S. pneumoniae isolates with PCR of resistance mechanism; format: cell-based, Streptococcus pneumoniae; details: Streptococcus pneumoniae
Description: (§1) Samples of middle ear fluid were split for storage at a central laboratory and cultured locally. All pathogens isolated locally were subcultured and sent to a central laboratory for confirmation and susceptibility testing, performed by Kirby-Bauer disk-diffusion or MIC testing according to NCCLS standards.
Polymerase chain reaction (PCR) determination of resistance mechanisms in all the azithromycin-resistant pneumococci was done.
(§2) Cultures were taken for antimicrobial susceptibility testing and bacterial species were identified. Current NCCLS approved breakpoints for MICs and zone sizes were applied to all data irrespective of the breakpoint in use at the time of the study. The isolates from the clinical studies were sent to central laboratories for identification and susceptibility determination. The methods for agar diffusion disk tests are those recommended by NCCLS.
(§3) The susceptibility breakpoints for azithromycin were defined as follows: […]

H. influenzae [2] = test: Susceptibility testing of trial H. influenzae isolates; format: cell-based, Haemophilus influenzae; details: NCCLS criteria
Description: as §1, §2, §3

M. catarrhalis = test: Susceptibility testing of trial M. catarrhalis isolates; format: cell-based, Moraxella catarrhalis; details: NCCLS criteria
Description: as §1, §2, §3

[3] = test system: Streptococcus pyogenes 02C0203; test: Murine acute infection (peritonitis) model challenged with Streptococcus pyogenes; format: in vivo, mouse
[4] = test system: Haemophilus influenzae 54A1100; test: Murine acute infection (peritonitis) model challenged with Haemophilus influenzae; format: in vivo, mouse; details: for PD50: s.c.
[5] = test system: Haemophilus influenzae 54A1218; test: Gerbil middle ear infection in vivo time kill, H. influenzae 54A1218; details: for eradication: at 72 and 96 hours post-infection
[6] = Azithromycin serum pharmacokinetics in mice; format: in vivo, mouse; details: for Cmax / Tmax / AUC(0-t): female, CF-1, mouse, Serum PK, total dose 100 mg/kg oral; for AUC(0-t): read-out: AUC(0-tlast)
Protocol: Blood and pulmonary tissue samples were taken starting at 0.5 h post-dose and at predetermined intervals over a 96 h period. […] […] The lower limit of quantification (LLOQ) was 50 ng/ml. […] Interassay variability was <7%. Pharmacokinetic parameters were calculated using the non-compartmental method by WinNonlin 2.1 (Scientific Consulting, Inc.).

S. pneumoniae = test: Study 95-001 otitis media, S. pneumoniae as baseline pathogen; format: in vivo, human; details: five patients in azithromycin regimens with S. pneumoniae isolates with intermediate resistance
Protocol: (§4) Specimens for culture and susceptibility testing were obtained from the infected ear by tympanocentesis within 24 h of start of therapy. […] However, the study was evaluated using the breakpoints in the most recent set of guidelines.
(§5) To be a bacteriological cure, the MITT subject had to have a positive culture from the middle ear for S. pneumoniae, H influenzae, or M. catarrhalis. Eradication was defined as presumed eradication of pretreatment pathogen(s) based on signs/symptoms or unavailability of culturable material. All evaluable patients had only one of the bacterial species present at baseline. There was no bacteriological response data collected for 95–001. However, the clinical outcome by bacterial pathogen at follow-up (approximately 28 days after first visit) was collected. For patients with S. pneumoniae as the baseline pathogen, all treatment arms yielded 100% clinical cure when the investigators' evaluations that were missing are not included in the analysis. […] The comparator drug, ceftriaxone, had no failures out of 9 patients.

H. influenzae [7] = test: Study 95-001 otitis media caused by H. influenzae; format: in vivo, human; details: 3-day regimen (10 mg/kg/day); 13 patients; follow-up
Protocol: as §4, §5

H. influenzae [8] = test: Study 95-001 Kirby-Bauer disk diffusion susceptibility, H. influenzae; format: cell-based, Haemophilus influenzae; details: all H. influenzae organisms isolated
Protocol: as §4

[9] = oral QD, murine peritonitis model
[10] = 33 mg/kg, 3 days of dosing, 33.3 mg/kg/dose
[11] = 1 day of dosing, 100 mg/kg/dose
[12] = 2 days of dosing, 50 mg/kg/dose

CC[C@H]1OC(=O)[C@H](C)[C@@H](O[C@H]2C[C@@](C)(OC)[C@@H](O)[C@H](C)O2)[C@H](C)[C@@H](O[C@@H]2O[C@H](C)C[C@H](N(C)C)[C@H]2O)[C@](C)(O)C[C@@H](C)CN(C)[C@H](C)[C@@H](O)[C@]1(C)O [Azithromycin, 9a-aza-9a-methyl-9-deoxo-9a-homoerythromycin A]
clinical failure (and presumed persistence) rate (H. influenzae [1]; MITT, thirty-nine evaluable H. influenzae strains): 33.3% | clinical cure rate overall with PCR-identified H. influenzae cures added (H. influenzae [1]; TOC, seventeen PCR-identified patients added): 76.8% | clinical outcome at test of cure of patients with H. influenzae identified by PCR only (H. influenzae [1]; seventeen additional patients): clinically cured | MIC (S. pneumoniae isolates; macrolide-resistant S. pneumoniae isolates containing the erm B gene): > 256 µg/mL | MIC (S. pneumoniae isolates; macrolide-resistant S. pneumoniae isolates containing the mef A gene): 8 µg/mL (≈ 10.7 µM) | susceptibility of isolated H. influenzae to azithromycin (H. influenzae [2]): susceptible | susceptibility of isolated M. catarrhalis to azithromycin (M. catarrhalis): susceptible | Oral PD50 ([3]; Dosing Regimen 1 day): 1.0 (0.6–1.4) mg/kg/day | Oral PD50 ([3]; Dosing Regimen 2 days): 2.5 (1.8–3.3) mg/kg/day | Oral PD50 ([3]; Dosing Regimen 3 days): 3.8 (3.8–3.9) mg/kg/day | Mice Surviving/Total ([3]; mouse, in vivo): 1/10 and 10/10 and 8/10 and 3/10 and 0/10 and 9/10 and 7/10 | ED50 One-Day Therapy [3, 9]: 0.78^1 mg/kg/therapy | ED50 Two-Day Therapy [3, 9]: 1.1 mg/kg/therapy | Oral PD50 ([4]; Dosing Regimen 1 day): 25.3 (14.3–36.2) mg/kg/day | Oral PD50 ([4]; Dosing Regimen 2 days): 49.9 (41.5–58.5) mg/kg/day | Oral PD50 ([4]; Dosing Regimen 3 days): 181.6 (180.1–183.1) mg/kg/day | Mice Surviving/Total ([4]; mouse, in vivo): 0/10 and 6/10 and 10/10 and 9/10 and 1/10 and 5/10 | PD50 ([4]; one therapeutic dose (one day regimen)): 25.3 mg/kg | ED50 One-Day Therapy [4, 9]: 30.3^1 mg/kg/therapy | ED50 Three-Day Therapy [4, 9]: 147 mg/kg/therapy | ED50 Two-Day Therapy [4, 9]: 48 mg/kg/therapy | PD50 ([4]; previously tested, standard dosing paradigm (b.i.d. on day 1)): 27 mg/kg | Recoverable CFU (Bulla) [Log10.Geo.Mean] (SEM) ([5]; 66.6 mg/kg/day oral Q.D. [3 days], 48 hours post-infection): <5.2399 (1.21) log of cfu-bulla wash/ml and <5.2399 log of cfu-bulla wash/ml | Recoverable CFU (Bulla) [Log10.Geo.Mean] (SEM) ([5]; 66.6 mg/kg/day oral Q.D. [3 days], 72 hours post-infection): <2.0000 log of cfu-bulla wash/ml | Recoverable CFU (Bulla) [Log10.Geo.Mean] (SEM) ([5]; 66.6 mg/kg/day oral Q.D. [3 days], 96 hours post-infection): <2.0000 log of cfu-bulla wash/ml | Recoverable CFU (Bulla) [Log10.Geo.Mean] (SEM) ([5]; 100 mg/kg/day oral Q.D. [2 days], 48 hours post-infection): <3.8587 (1.04) log of cfu-bulla wash/ml and <3.857 log of cfu-bulla wash/ml | Recoverable CFU (Bulla) [Log10.Geo.Mean] (SEM) ([5]; 100 mg/kg/day oral Q.D. [2 days], 72 hours post-infection): <2.0000 log of cfu-bulla wash/ml | Recoverable CFU (Bulla) [Log10.Geo.Mean] (SEM) ([5]; 100 mg/kg/day oral Q.D. [2 days], 96 hours post-infection): <2.0000 log of cfu-bulla wash/ml | Recoverable CFU (Bulla) [Log10.Geo.Mean] (SEM) ([5]; 200 mg/kg/day oral Q.D. [1 day], 48 hours post-infection): <2.0000 log of cfu-bulla wash/ml | Recoverable CFU (Bulla) [Log10.Geo.Mean] (SEM) ([5]; 200 mg/kg/day oral Q.D. [1 day], 72 hours post-infection): <2.0602 log of cfu-bulla wash/ml | Recoverable CFU (Bulla) [Log10.Geo.Mean] (SEM) ([5]; 200 mg/kg/day oral Q.D. [1 day], 96 hours post-infection): <2.0000 log of cfu-bulla wash/ml | eradication ([5]; Q.D. 2): eradication was observed | eradication ([5]; Q.D. 3): eradication was observed | % Clearance of Group ([5]; QD1, 48 hours post infection, <1 × 10^3 cfu/ml considered negative): 100% | % Clearance of Group ([5]; QD1, 72 hours post infection): 100% | % Clearance of Group ([5]; QD1, 96 hours post infection): 100% | % Clearance of Group ([5]; QD2, 48 hours post infection): 40% | % Clearance of Group ([5]; QD2, 72 hours post infection): 100% | % Clearance of Group ([5]; QD2, 96 hours post infection): 100% | % Clearance of Group ([5]; QD3, 48 hours post infection): 40% | % Clearance of Group ([5]; QD3, 72 hours post infection): 100% | % Clearance of Group ([5]; QD3, 96 hours post infection): 100% | Cmax, single dose vs. the same total dose administered over 3 days ([6]; better when administered as a single dose): 3 fold | Cmax [6, 10]: 980 ng/mL | Tmax [6, 10]: 26 h | AUC(0-t) [6, 10]: 19800 ng·h/mL | Cmax [6, 11]: 2100 ng/mL | Tmax [6, 11]: 2 h | AUC(0-t) [6, 11]: 18800 ng·h/mL | Cmax [6, 12]: 1300 ng/mL | Tmax [6, 12]: 26 h | AUC(0-t) [6, 12]: 15900 ng·h/mL | clinical outcomes at EOT or follow-up (S. pneumoniae): either “cure” or “improvement” | failures (H. influenzae [7]): 2 | zone sizes (agar diffusion) (H. influenzae [8]): ≥ 19 mm | susceptibility by agar diffusion (zone size) (H. influenzae [8]; NCCLS breakpoint of ≧12 mm): susceptible
